Earlier results, collected in US20170259275A1, “PROCESS FOR SEPARATING AMINO AND/OR ORGANIC ACID-CONTAINING PARTICLES FROM A MIXTURE” (Sanovations B.V., priority 2014, published 2017).

Experiments:
[1] = 25° C., water
[2] = solid, crystalline form

Aqueous Solubility [1] [g/100 g] | Crystal Density [2] [g/mL] | SMILES
2.965 | 1.315 | N[C@@H](Cc1ccccc1)C(=O)O [Phenylalanine]
3.381 | 1.311 | CSCC[C@H](N)C(=O)O [Methionine]
2.426 |  | CC(C)C[C@H](N)C(=O)O [Leucine]
 | 1.376 | O=C(O)[C@@H]1CCCN1 [Proline]
8.85 | 1.267 | CC(C)[C@H](N)C(=O)O [Valine]
 | 1.582 | N[C@@H](CO)C(=O)O [Serine]
 | 1.499 | C[C@@H](O)[C@H](N)C(=O)O [Threonine]
4.19 | 1.412 | N[C@@H](Cc1c[nH]cn1)C(=O)O [Histidine]
 | 1.598 | NCC(=O)O [Glycine]
 | 1.403 | N[C@@H](Cc1ccc(O)cc1)C(=O)O [Tyrosine]
4.117 | 1.201 | CC[C@H](C)[C@H](N)C(=O)O [Isoleucine]

The remaining lines, values behind:

SMILES | Aqueous Solubility [1] [g/100 g] | Crystal Density [2] [g/mL]
NC(=O)CC[C@H](N)C(=O)O [Glutamine] | 2.5 | 
N[C@@H](Cc1c[nH]c2ccccc12)C(=O)O [Tryptophan] | 1.136 | 1.303
N[C@@H](CCC(=O)O)C(=O)O [Glutamic Acid] |  | 1.566
NCCCC[C@H](N)C(=O)O [Lysine] | 30 | 1.237
N[C@@H](CC(=O)O)C(=O)O [Aspartic Acid] |  | 1.636
C[C@H](N)C(=O)O [Alanine] | 16.65 | 1.371
N=C(N)NCCC[C@H](N)C(=O)O [Arginine] |  | 1.325
N[C@@H](CS)C(=O)O [Cysteine] | 28 | 1.495
NC(=O)C[C@H](N)C(=O)O [Asparagine] | 3.53 | 
